≈ marks a conversion by molar mass, not a printed value.
Key:
[1] = system: intracellular ATP synthesis of M. abscessus subsp. abscessus; test: Whole-cell ATP measurement (BacTiter-Glo), intracellular ATP synthesis inhibition; format: cell-based, Mycobacterium abscessus subsp. abscessus; conditions: Mycobacteroides abscessus, CAMH medium, 24 h, read-out: inhibitory concentration (IC50) for intracellular ATP levels
Procedure: Clear 96-well flat-bottom cell culture plates (Nunc) were filled with 100 μL of CAMH medium in each well. The compound was added to the first well in each row to create two times the desired highest final concentration. Subsequently, a […] twofold serial dilution was carried out starting from the first well in each row. Mab, which was grown to mid-exponential phase, was diluted to an optical density at 600 nm (OD600) of 0.1; 100 μL of the diluted culture was added to each well to create a final OD600 of 0.05 in all the wells. The plates were incubated at 37° C. on a standing incubator for 24 h. At the end of the incubation period, the samples were measured for their intrabacterial ATP content by employing the BacTiter-Glo microbial cell viability assay (Promega), which was carried out according to the manufacturer's instructions as described previously (Hotra, A. et al., Angew. Chem. Int. Ed. Engl. 2020, 59, 13295-13304). […] Luminescence was measured with Cytation 5 multi-mode reader after 10 min of incubation of the plate in the dark at room temperature. The background luminescence reading was subtracted from the luminescence readings of all the samples. The ATP amount is directly proportional to the relative luminescence units. […]
The similar IC50- and MIC50 values determined, indicate that ATP synthesis catalyzed by the F-ATP synthase is the major cause of cell growth inhibition.

[2] = system: M. abscessus subsp. abscessus ATCC 19977; test: Growth inhibition dose-response assay, broth microdilution in CAMH medium; format: cell-based, Mycobacterium abscessus subsp. abscessus; conditions: Mycobacteroides abscessus, ATCC19977; M. abscessus subsp. abscessus ATCC 19977, CAMH medium; concentration that inhibits 50% of growth; read-out: minimum inhibitory concentration (MIC50), growth inhibition
Procedure: The M. abscessus subsp. abscessus ATCC 19977 strain was used. The Mab strain was maintained in CAMH broth, which was prepared according to the manufacturer's instructions. The growth inhibition dose-response assay was carried out using the broth microdilution method as described previously (Moreira, W., Aziz, D. B. & Dick T., Front. Microbiol. 2016, 7, 199). The MIC50 reported represents the concentration that inhibits 50% of growth compared with the untreated culture.

[3] = target: T1, Mabε (M. abscessus F-ATP synthase subunit ε) (Mycobacteroides abscessus, UniProt B1MLW3); test: 1H-15N-HSQC NMR titration and R2 relaxation of Mabε with compound; format: binding, Mycobacterium abscessus; conditions: 1:5 molar ratio of Mabε and Ep1MabF1; residues V9, A10, R13, E14, G68-I72, V77, I79-A81
T1 construct: made in house; host or cells: Escherichia coli C41 (DE3)
T1 sequence (B1MLW3 2-121): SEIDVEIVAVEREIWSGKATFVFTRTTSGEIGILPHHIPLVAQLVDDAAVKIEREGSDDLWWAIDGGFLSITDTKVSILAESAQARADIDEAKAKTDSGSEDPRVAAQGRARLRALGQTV
Procedure: All NMR experiments were carried out on a BrukerAvance 700-MHz spectrometer, which was equipped with a cryoprobe at 298 K.
To confirm that Mabε is Ep1MabF1's target, a ^1H-^15N-HSQC NMR titration experiment in the presence (1:5 molar ratio of Mabε and Ep1MabF1) and absence of the compound was performed. Significant changes in chemical shift were (CSP >0.15 ppm) detected for the backbone resonances of amino acids V9, A10, R13, E14, G68-172, V77 and 179-A81 (FIGS. 14C and 15). […] In addition, we measured R2 relaxation data in the presence of Ep1MabF1 and calculated the changes of R2 values between the compound-free and compound-bound protein.

[4] = target: T1, Mabε (M. abscessus F-ATP synthase subunit ε); test: NMR titration of Mabε with MgATP; format: binding, Mycobacterium abscessus; conditions: molar ratio of Mabε to MgATP of 1:10
Text: In thermophilic Bacillus PS3, Bacillus subtilis and chloroplasts, the C terminus of E is described as a mobile regulatory element, altering its conformation in response to nucleotide conditions or the ion motive force (IMF). ATP binding in E of thermophilic Bacillus PS3 and Bacillus subtilis forces the C-terminal helices into a hairpin conformation, which extends in the absence of the nucleotide, leading to an inhibited ATP hydrolysis state. Here, we used the high-quality NMR spectra of Mabε and performed NMR titration experiments in the presence of MgATP (molar ratio of Mabε to MgATP of 1:10). […] ATP binding of the M. smegmatis subunit E was also not observed in the recent cryo-EM structure of the M. smegmatis F-ATP synthase (Guo, H. et al., Nature 2021, 589, 143-147), underlining that the mycobacterial E subunits are not regulated via nucleotide binding to this rotary subunit.

Row | SMILES | IC50 [1] [µM] | MIC50 [2] [µM] | chemical shift perturbation (CSP) of Mabε backbone resonances [3] [ppm] | chemical shift change of Mabε in 15N HSQC after addition of nucleotide (binding) [4]
1 | Cc1cccc(Cc2nc3ccccc3n2CCC(=O)NCc2ccccn2)c1 [Ep1MabF1, 3-(2-(3-methylbenzyl)-1H-benzo[d]imidazol-1-yl)-N-(pyridin-2-ylmethyl)propanamide] | 600 ± 30 | 420 ± 14 (≈ 161 µg/mL) | > 0.15 | 
2 | Nc1ncnc2c1ncn2[C@@H]1O[C@H](COP(=O)(O)OP(=O)([O-])OP(=O)([O-])O)[C@@H](O)[C@H]1O.[Mg+2] [MgATP] |  |  |  | no obvious chemical shift was observed

Source: US20240390351A1, “MYCOBACTERIUM ABSCESSUS GROWTH INHIBITOR AND MODEL” (priority 2021, published 2024)
